# Test results taken from BindingDB's records for doi:10.7270/Q2K072QS (Burnham Center For Chemical Genomics, 2010).
# Molecular target: G-protein coupled receptor 35 (Homo sapiens, UniProt Q9HC97)
# Assay: blockers of orphan receptor GPR35 – imaging, high-content imaging, selectivity assay for GPR55 agonist project, SAR follow-up (AID 2338)
# Conditions: not given
# Sequence of G-protein coupled receptor 35 (Q9HC97 whole entry): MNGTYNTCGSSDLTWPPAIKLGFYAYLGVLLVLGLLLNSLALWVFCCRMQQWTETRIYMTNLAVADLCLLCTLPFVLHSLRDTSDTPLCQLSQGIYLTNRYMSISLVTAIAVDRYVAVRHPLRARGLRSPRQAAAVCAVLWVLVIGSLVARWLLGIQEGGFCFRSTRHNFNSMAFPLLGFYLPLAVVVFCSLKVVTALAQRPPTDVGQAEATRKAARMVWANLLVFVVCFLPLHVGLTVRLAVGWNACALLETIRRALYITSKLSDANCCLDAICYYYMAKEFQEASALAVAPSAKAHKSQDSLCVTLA
row,Structure (SMILES),IC50
1,C=CCN(CC=C)S(=O)(=O)c1ccc(NC(=S)NC(=O)c2ccc(-c3ccccc3)cc2)cc1,> 32 µM
2,COc1ccccc1C=CC(=O)NC(=S)Nc1ccc(S(=O)(=O)N(C)c2ccccc2)cc1,> 32 µM
3,O=C(CSc1nc2ccccc2s1)N1c2ccccc2Sc2ccc(C(F)(F)F)cc21,> 32 µM
4,Cc1cccc(N2CCN(C(=O)c3cc(S(=O)(=O)N(C)C)ccc3N3CCCC3)CC2)c1C,> 32 µM
5,CCCN(CCC)Cc1c(C(=O)NN=Cc2c[nH]c3ccccc23)nnn1-c1nonc1N,> 32 µM
6,C/C(C=NNC(=O)c1nnn(-c2nonc2N)c1CN1CCC(C)CC1)=C/c1ccccc1,> 32 µM
7,"CCCN(CCC)Cc1c(C(=O)NN=C/C(C)=C\c2ccccc2)nnn1-c1nonc1N [1-(4-azanyl-1,2,5-oxadiazol-3-yl)-5-[(dipropylamino)methyl]-N-[[(Z)-2-methyl-3-phenyl-prop-2-enylidene]amino]-1,2,3-triazole-4-carboxamide]",> 32 µM
8,COc1cc2c(cc1NC(=O)C(C)Sc1ccc(NC(C)=O)cc1)oc1ccccc12 (stereo unspecified) [2-[(4-acetamidophenyl)thio]-N-(2-methoxy-3-dibenzofuranyl)propanamide],> 32 µM
9,Cc1occc1C(=O)Nc1ccc(OCc2ccccc2)cc1 [2-methyl-N-(4-phenylmethoxyphenyl)furan-3-carboxamide],> 32 µM
10,CC(C)=CC(=O)Nc1ccc(OCc2ccccc2)cc1 [3-methyl-N-(4-phenylmethoxyphenyl)but-2-enamide],> 32 µM
11,COc1cc2c(cc1NC(=O)CSc1ccccc1)oc1ccccc12 [MLS000579482],> 32 µM
12,COc1ccc2c(c1)cc(C)c1nnc(SCC(=O)N(C)c3nc(-c4ccccc4)cs3)n12 [MLS-0102574.0001],> 32 µM
13,CC(C)Oc1ccc(S(=O)(=O)N2CCOCC2)cc1NC(=O)c1ccc(N2CCCC2=O)cc1 [N-(5-morpholin-4-ylsulfonyl-2-propan-2-yloxy-phenyl)-4-(2-oxidanylidenepyrrolidin-1-yl)benzamide],> 32 µM
14,"COc1ccc(S(=O)(=O)N2CCOCC2)cc1NC(=O)c1cc2c(s1)CCCC2 [N-[2-methoxy-5-(4-morpholinylsulfonyl)phenyl]-4,5,6,7-tetrahydro-1-benzothiophene-2-carboxamide]",> 32 µM
15,"COc1ccc2cc(C)c3nnc(SCC(=O)Nc4nc(-c5ccc(F)cc5)cs4)n3c2c1 [N-[4-(4-fluorophenyl)-1,3-thiazol-2-yl]-2-[(8-methoxy-4-methyl-[1,2,4]triazolo[4,3-a]quinolin-1-yl)sulfanyl]ethanamide]",> 32 µM
16,"COc1ccc(-c2csc(NC(=O)CSc3nnc4c(C)cc5ccccc5n34)n2)cc1 [N-[4-(4-methoxyphenyl)-1,3-thiazol-2-yl]-2-[(4-methyl-[1,2,4]triazolo[4,3-a]quinolin-1-yl)sulfanyl]ethanamide]",> 32 µM
17,O=C(CSc1nc2ccccc2s1)N1c2ccccc2Sc2ccc(Cl)cc21 [SMR000198068],> 32 µM
18,CC(C)NS(=O)(=O)c1ccc(NC(=S)NC(=O)c2ccc(-c3ccccc3)cc2)cc1 [SMR000200853],> 32 µM
19,CC(Sc1nc2cc(Cl)ccc2s1)C(=O)Nc1cccc(S(=O)(=O)N2CCOCC2)c1 (stereo unspecified) [SMR000243093],> 32 µM
20,CN(C)S(=O)(=O)c1ccc(N2CCCC2)c(C(=O)N2CCN(c3ccc([N+](=O)[O-])cc3)CC2)c1 [SMR000370611],> 32 µM

# Same assay, conditions: inactive by the depositor's call
row,Structure (SMILES),IC50
1,"CCCN(CCC)Cc1c(C(=O)NN=C/C(C)=C\c2ccco2)nnn1-c1nonc1N [1-(4-azanyl-1,2,5-oxadiazol-3-yl)-5-[(dipropylamino)methyl]-N-[[(Z)-3-(furan-2-yl)-2-methyl-prop-2-enylidene]amino]-1,2,3-triazole-4-carboxamide]",24.4 µM
